How the values were obtained:
[1] = test system: lung cancer cell line H358 having the KRAS G12S variant; test: SynergyScreen combination efficacy (ATPlite 1Step cell viability); settings: for Synergy 2: difference between Synergy 1 and cell death rate of Ex. 1-2 alone
Description: In order to measure cell viability, each well was treated with 24 µL of ATPlite 1Step™ (PerkinElmer) solution, then mixed for 2 minutes, and reacted by blocking light for 5 minutes, and then the luminescence signal was measured using an Envision multilabel reader (PerkinElmer).

[2] = test system: lung cancer cell line NCI-H358 having the KRAS G12C variant; test: Cancer cell growth inhibition, 3D spheroids (CellTiter-Glo 3D); format: cell-based; settings: Homo sapiens, NCI-H358, 120 h; 3D spheroids, 0.002-10 µM, 5 days; read-out: H358 cell viability
In short: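 NCI-H358 (KRAS G12C) spheroids lysed with CellTiter-Glo 3D for 30 min with shaking after 10 min at room temperature. Growth in compound-treated wells expressed relative to untreated wells set to 100%.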

KRAS G12C::SOS1 = target: T1, KRAS G12C::SOS1 (Homo sapiens, UniProt Q07889); test: KRAS G12C::SOS1 protein-protein interaction (PPI) inhibition assay (HTRF); format: binding; settings: 8 concentrations from 3 µM, three replicates; read-out: KRAS G12C::SOS1 PPI
T1 construct: purchased CISBIO 64KRASG12PEH
T1 sequence (Q07889 1-1333): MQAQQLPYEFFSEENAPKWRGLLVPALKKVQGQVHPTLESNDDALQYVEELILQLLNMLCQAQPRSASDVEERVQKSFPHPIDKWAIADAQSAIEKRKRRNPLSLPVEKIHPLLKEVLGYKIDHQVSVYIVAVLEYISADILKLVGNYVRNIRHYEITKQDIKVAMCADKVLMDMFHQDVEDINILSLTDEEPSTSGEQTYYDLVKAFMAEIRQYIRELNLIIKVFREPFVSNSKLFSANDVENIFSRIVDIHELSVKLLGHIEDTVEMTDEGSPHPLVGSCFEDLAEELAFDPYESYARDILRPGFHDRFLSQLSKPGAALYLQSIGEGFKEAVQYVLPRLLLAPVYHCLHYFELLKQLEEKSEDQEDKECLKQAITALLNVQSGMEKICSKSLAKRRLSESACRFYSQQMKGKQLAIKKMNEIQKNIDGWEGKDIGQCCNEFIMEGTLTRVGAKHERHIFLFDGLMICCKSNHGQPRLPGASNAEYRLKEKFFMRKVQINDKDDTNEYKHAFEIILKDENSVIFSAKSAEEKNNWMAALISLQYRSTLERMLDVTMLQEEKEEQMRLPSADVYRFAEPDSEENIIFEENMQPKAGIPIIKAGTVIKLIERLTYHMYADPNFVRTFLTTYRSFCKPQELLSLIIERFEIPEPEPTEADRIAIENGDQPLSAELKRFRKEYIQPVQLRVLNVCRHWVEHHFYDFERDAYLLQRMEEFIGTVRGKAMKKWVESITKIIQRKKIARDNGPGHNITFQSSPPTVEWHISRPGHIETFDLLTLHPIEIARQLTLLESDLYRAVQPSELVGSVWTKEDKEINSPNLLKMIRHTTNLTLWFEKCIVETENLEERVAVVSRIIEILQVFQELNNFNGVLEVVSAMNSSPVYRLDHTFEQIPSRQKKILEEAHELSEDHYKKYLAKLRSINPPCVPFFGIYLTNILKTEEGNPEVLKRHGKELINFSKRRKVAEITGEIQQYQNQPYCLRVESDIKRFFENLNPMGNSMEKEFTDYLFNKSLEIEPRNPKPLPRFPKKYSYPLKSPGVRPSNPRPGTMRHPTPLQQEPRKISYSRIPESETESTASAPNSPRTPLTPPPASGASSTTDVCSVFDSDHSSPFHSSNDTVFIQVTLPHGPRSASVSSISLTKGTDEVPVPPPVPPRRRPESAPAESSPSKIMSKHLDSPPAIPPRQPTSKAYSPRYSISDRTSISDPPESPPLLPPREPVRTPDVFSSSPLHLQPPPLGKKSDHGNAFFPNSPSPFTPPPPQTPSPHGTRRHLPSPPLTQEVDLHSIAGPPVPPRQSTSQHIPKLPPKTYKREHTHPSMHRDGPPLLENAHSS
In short: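 Compounds, at eight 3-fold dilutions from 3 µM, were mixed with GTP-loaded Tag1-KRAS G12C, Tag2-SOS1 and a terbium-cryptate donor plus XL665 acceptor antibody pair. After 2 h at room temperature, time-resolved FRET reported the KRAS–SOS1 interaction.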

SOS1 = target: T2, SOS1 (Homo sapiens, UniProt Q07889); test: SOS-catalyzed nucleotide exchange assay (HTRF, SOS1-mediated GTP loading of KRAS G12D); format: biochemical; settings: GST-KRAS G12D, HIS-SOS1cat, compound 128 pM to 10 µM; read-out: SOS-catalyzed nucleotide exchange assay
T2 construct: HIS-SOS1cat (160 nM; Cytoskeleton, US); His (N); purchased Cytoskeleton
T2 sequence (Q07889 564-1049 limits assumed): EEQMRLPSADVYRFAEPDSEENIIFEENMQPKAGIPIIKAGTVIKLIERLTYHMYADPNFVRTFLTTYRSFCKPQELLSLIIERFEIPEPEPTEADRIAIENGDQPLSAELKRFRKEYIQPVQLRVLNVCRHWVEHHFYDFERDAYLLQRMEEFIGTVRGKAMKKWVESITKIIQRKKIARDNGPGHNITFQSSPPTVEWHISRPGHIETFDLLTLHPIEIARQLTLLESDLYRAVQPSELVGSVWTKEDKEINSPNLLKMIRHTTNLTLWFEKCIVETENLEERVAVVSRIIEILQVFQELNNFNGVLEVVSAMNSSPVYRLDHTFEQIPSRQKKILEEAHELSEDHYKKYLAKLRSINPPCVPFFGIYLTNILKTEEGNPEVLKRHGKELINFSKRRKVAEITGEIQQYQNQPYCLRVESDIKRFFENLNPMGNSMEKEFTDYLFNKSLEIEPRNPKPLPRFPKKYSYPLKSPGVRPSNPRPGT

For `CNC(=O)c1cc(Oc2ccc(NC(=O)Nc3ccc(Cl)c(C(F)(F)F)c3)cc2)ccn1` [Sorafenib, sorafenib], the “Synergy 2” value ([1]; Ex. 1-2 log M -5.9, culture time 72 h) was “+ (less than 10%)”.
In the case of `O=c1cc(-c2ccc(O)c(O)c2O)oc2ccccc12` [Example 2-D08, 2-D08], the “Synergy 2” value ([1]; Ex. 1-2 log M -6.3, culture time 120 h) is reported as “+ (less than 10%)”.
With `C[C@]12C=CC(=O)C=C1CC[C@@H]1[C@@H]2[C@@H](O)C[C@@]2(C)[C@H]1CC[C@]2(O)C(=O)CO` [prednisolone] the “Concentration (log M) Anticancer agent” value ([1]; words printed in place of a concentration, culture time 72 h, with Ex. 1-2 log M -5.9) was “No Concentration -dependent change”.
Compound `C[C@@H](NC(=O)c1ccc(=O)n(-c2cncc(-c3cnnn3C3CC3)c2)n1)c1cccc(C(F)(F)CO)c1F` [Example 1-53, N-[(1R)-1-[3-(1,1-difluoro-2-hydroxy-ethyl)-2-fluoro-phenyl]ethyl]-1-[5-(1-cyclopropyl-1H-1,2,3-triazol-5-yl)-3-pyridyl]-6-oxo-pyridazine-3-carboxamide] has an IC50 [2] of less than 1000 nM, an IC50 (KRAS G12C::SOS1) of less than 50 nM and an IC50 (SOS1) of less than 50 nM.
`C[C@@H](NC(=O)c1ccc(=O)n(-c2cc(-c3cnnn3C)cnc2F)n1)c1cccc(C(F)(F)F)c1F` [Example 6-7, N-{(R)-1-[2-fluoro-3-(trifluoromethyl)phenyl]ethyl}-1-[2-fluoro-5-(1-methyl-1H-1,2,3-triazol-5-yl)-3-pyridyl]-6-oxo-1,6-dihydropyridazine-3-carboxamide] was tested, and the IC50 [2] was less than 1000 nM, the IC50 (KRAS G12C::SOS1) was less than 50 nM and the IC50 (SOS1) was less than 50 nM.
`C[C@@H](NC(=O)c1cc(C2CC2)c(=O)n(-c2cncc(-c3cnnn3C)c2)n1)c1cccc(C(F)(F)F)c1F` [Example 7-4, N-{(R)-1-[2-fluoro-3-(trifluoromethyl)phenyl]ethyl}-5-cyclopropyl-1-[5-(1-methyl-1H-1,2,3-triazol-5-yl)-3-pyridyl]-6-oxo-1,6-dihydropyridazine-3-carboxamide] gave an IC50 [2] of less than 1000 nM, an IC50 (KRAS G12C::SOS1) of less than 50 nM and an IC50 (SOS1) of less than 50 nM.
`C[C@@H](NC(=O)c1ccc(=O)n(-c2cncc(-c3ccnn3C)c2)n1)c1cccc(C(F)(F)F)c1F` [Example 1-17, N-[(1R)-1-[2-fluoro-3-(trifluoromethyl)phenyl]ethyl]-1-[5-(2-methylpyrazol-3-yl)-3-pyridyl]-6-oxo-pyridazine-3-carboxamide] was tested, and the IC50 [2] was less than 1000 nM, the IC50 (KRAS G12C::SOS1) was greater than 150 nM and the IC50 (SOS1) was 50 to 150 nM.
With `C[C@@H](NC(=O)c1cc(-c2ccccc2)c(=O)n(-c2cncc(-c3cnnn3C)c2)n1)c1cccc(C(F)(F)F)c1F` [Example 1-63, N-{(R)-1-[2-fluoro-3-(trifluoromethyl)phenyl]ethyl}-1-[5-(1-methyl-1H-1,2,3-triazol-5-yl)-3-pyridyl]-6-oxo-5-phenyl-1,6-dihydropyridazine-3-carboxamide] the IC50 [2] was less than 1000 nM, the IC50 (KRAS G12C::SOS1) was 50 to 150 nM and the IC50 (SOS1) was 50 to 150 nM.
Compound `[2H]C([2H])([2H])n1nncc1-c1cncc(-n2nc(C(=O)N[C@H](C)c3cccc(C(F)F)c3F)ccc2=O)c1` [Example 1-6, N-[(1R)-1-[3-(difluoromethyl)-2-fluoro-phenyl]ethyl]-6-oxo-1-[5-[3-(trideuteriomethyl)triazol-4-yl]-3-pyridyl]pyridazine-3-carboxamide] has an IC50 [2] greater than 3000 nM, an IC50 (KRAS G12C::SOS1) of less than 50 nM and an IC50 (SOS1) of 50 to 150 nM.
`Cc1c([C@@H](C)NC(=O)c2ccc(=O)n(-c3cncc(-c4ccnn4C)c3)n2)cc(N)cc1C(F)(F)F` [Example 2-4, N-[(1R)-1-[5-amino-2-methyl-3-(trifluoromethyl)phenyl]ethyl]-1-[5-(2-methylpyrazol-3-yl)-3-pyridyl]-6-oxo-pyridazine-3-carboxamide] was tested, and the IC50 [2] was less than 1000 nM, the IC50 (KRAS G12C::SOS1) was less than 50 nM and the IC50 (SOS1) was less than 50 nM.
`Cc1cc(C(=O)N[C@H](C)c2cccc(C(F)(F)CO)c2F)nn(-c2cncc(-c3cnnn3C(C)C)c2)c1=O` [Example 1-39, N-{(R)-1-[3-(1,1-difluoro-2-hydroxyethyl)-2-fluorophenyl]ethyl}-1-[5-(1-isopropyl-1H-1,2,3-triazol-5-yl)-3-pyridyl]-5-methyl-6-oxo-1,6-dihydropyridazine-3-carboxamide] showed an IC50 [2] of less than 1000 nM, an IC50 (KRAS G12C::SOS1) of less than 50 nM and an IC50 (SOS1) of less than 50 nM.
In the case of `C[C@@H](NC(=O)c1ccc(=O)n(-c2cncc(-c3cnnn3C)c2)n1)c1cccc(C(F)(F)F)c1F` [Example 1-2, N-[(1R)-1-[2-fluoro-3-(trifluoromethyl)phenyl]ethyl]-1-[5-(3-methyltriazol-4-yl)-3-pyridyl]-6-oxo-pyridazine-3-carboxamide], the “EFFECT20 (concentration that induces 20% cell death), applied as final treatment concentration” value ([1]; culture time 72 h) is reported as 1854 nM, the “EFFECT20 (concentration that induces 20% cell death), applied as final treatment concentration” value ([1]; culture time 120 h) is reported as 652 nM and the IC50 [2] is reported as less than 1000 nM. It also gave an IC50 (KRAS G12C::SOS1) of 50 to 150 nM and an IC50 (SOS1) of 50 to 150 nM.

Reference: patent EP4667464A1 (Cyrus Therapeutics Inc., priority 2023, dated 2024)
